Literature values as cited in patent publication US20130267562A1, “ACTIVE ENANTIOMER OF DODECYL 2-(N,N-DIMETHYLAMINO)-PROPIONATE” (NEXMED HOLDINGS, INC, priority 2010, published 2013).

- miscibility with organic solvents (most organic solvents): miscible with most organic solvents
- solubility in water (water): not soluble
Compound: CCCCCCCCCCCCOC(=O)C(C)N(C)C (racemic) [Racemic DDAIP, dodecyl 2-methyl-2-(N,N-dimethylamino)acetate]
